One assay has as its target T1, 5HT-transporter (Homo sapiens, UniProt P31645).
T1 construct: Human platelet membranes (Oceanix Biosciences Corporation, Hanover, Md., USA) were thawed; tissue Oceanix Biosciences Corporation, Hanover, Md., USA; host or cells: human platelet membranes
The experiment in a line: Binding experiment for the 5HT-transporter ([3H]paroxetine, human platelet membranes). The settings on record: [3H]paroxetine 0.5 nM, 60 min at 25° C.; for IC50: read-out: h-5HTT pIC50 (converted). A digest of the protocol:
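Competition binding of [3H]paroxetine to human platelet membranes in Tris-HCl 50 mM with 120 mM NaCl and 5 mM KCl; bound radioligand separated by GF/B filtration and counted.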

Assay [1] has as its target T2, human adrenergic-α2A receptor (Homo sapiens, UniProt P08913).
T2 construct: expressed in transfected cells; host or cells: CHO cells, stably transfected; membrane preparation
T2 sequence (P08913 1-465): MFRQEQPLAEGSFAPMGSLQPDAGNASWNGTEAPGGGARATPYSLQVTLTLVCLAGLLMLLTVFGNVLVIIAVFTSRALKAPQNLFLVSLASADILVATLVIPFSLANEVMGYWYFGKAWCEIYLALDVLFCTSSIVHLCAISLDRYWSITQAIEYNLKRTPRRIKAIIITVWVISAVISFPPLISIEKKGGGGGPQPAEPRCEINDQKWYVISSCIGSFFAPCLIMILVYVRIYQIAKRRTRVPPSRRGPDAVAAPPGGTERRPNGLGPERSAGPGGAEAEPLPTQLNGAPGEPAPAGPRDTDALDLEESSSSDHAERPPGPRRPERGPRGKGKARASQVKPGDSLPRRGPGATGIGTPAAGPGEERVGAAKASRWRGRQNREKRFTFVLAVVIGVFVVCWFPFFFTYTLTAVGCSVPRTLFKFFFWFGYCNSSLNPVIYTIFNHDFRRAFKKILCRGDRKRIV
Nature of the assay: Radioligand binding experiment for hα2A-adrenergic receptor ([3H]raulwolscine). The settings on record: [3H]raulwolscine 1 nM, 60 minutes at 25° C.; for IC50: read-out: h-α2A pIC50 (converted). A digest of the protocol: (§1)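 CHO membranes expressing human α2A or α2C receptors were incubated with 1 nM [^3H]raulwolscine for 60 min at 25° C in glycylglycine 25 mM, pH 8.0, then filtered. Nonspecific binding was defined with 1 μM oxymetazoline for α2A and 1 μM spiroxatrine for α2C. pIC50 came from sigmoidal competition curves.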

For assay [2], the target named is T3, human adrenergic-α2C receptor (Homo sapiens, UniProt P18825).
T3 construct: expressed in transfected cells; host or cells: CHO cells, stably transfected; membrane preparation
T3 sequence (P18825 1-462): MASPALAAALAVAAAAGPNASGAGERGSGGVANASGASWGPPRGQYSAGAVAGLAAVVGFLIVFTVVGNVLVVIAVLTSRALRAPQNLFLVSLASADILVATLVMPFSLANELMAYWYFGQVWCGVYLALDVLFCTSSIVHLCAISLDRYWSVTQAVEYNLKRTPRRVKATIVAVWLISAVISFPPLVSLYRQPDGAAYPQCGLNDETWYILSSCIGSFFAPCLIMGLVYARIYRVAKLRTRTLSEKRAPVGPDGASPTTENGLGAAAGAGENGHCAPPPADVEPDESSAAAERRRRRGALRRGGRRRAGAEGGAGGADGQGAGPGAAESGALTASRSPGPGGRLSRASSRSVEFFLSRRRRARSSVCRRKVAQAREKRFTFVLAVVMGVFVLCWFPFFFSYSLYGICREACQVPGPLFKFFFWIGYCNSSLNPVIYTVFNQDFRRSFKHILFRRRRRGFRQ
Nature of the assay: Radioligand binding experiment for hα2C-adrenoceptor ([3H]raulwolscine). The settings on record: [3H]raulwolscine 1 nM, 60 minutes at 25° C.; for IC50: read-out: h-α2C pIC50 (converted). A digest of the protocol: as §1

Bounds are passed on as bounds.

T1 sequence (P31645 whole entry): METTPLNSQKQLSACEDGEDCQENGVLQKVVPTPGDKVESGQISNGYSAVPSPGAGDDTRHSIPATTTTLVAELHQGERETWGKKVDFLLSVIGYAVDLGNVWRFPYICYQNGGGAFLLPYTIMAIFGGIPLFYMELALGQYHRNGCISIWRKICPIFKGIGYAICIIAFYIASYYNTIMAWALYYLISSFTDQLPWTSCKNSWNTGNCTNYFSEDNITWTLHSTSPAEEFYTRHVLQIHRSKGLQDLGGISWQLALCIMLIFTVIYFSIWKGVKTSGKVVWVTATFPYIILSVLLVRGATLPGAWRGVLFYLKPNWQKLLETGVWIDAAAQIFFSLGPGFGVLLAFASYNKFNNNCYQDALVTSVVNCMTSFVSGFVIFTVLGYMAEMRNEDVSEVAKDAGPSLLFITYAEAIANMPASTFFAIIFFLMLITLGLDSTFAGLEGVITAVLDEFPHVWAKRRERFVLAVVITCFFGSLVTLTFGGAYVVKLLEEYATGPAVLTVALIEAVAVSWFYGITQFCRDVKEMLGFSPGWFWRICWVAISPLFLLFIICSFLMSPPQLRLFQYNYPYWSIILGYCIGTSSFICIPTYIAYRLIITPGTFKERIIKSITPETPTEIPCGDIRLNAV

On to `O=c1[nH]c(-c2cccc(CN3CCOCC3)c2)c(Cl)nc1NC1CCN(Cc2ccc3ccccc3c2)CC1` [7-08], for which the IC50 at 5HT-transporter is 1260 nM; in assay [1] it was 1580 nM; in assay [2] it was 501 nM.

On to `CN1CCN(Cc2cccc(-c3[nH]c(=O)c(NC4CCN(Cc5ccc6ccccc6c5)CC4)nc3Cl)c2)CC1` [7-10], for which the IC50 at 5HT-transporter is 200 nM; in assay [1], 631 nM; in assay [2] it was 100 nM.

As to `COc1ccc(Cn2c(-c3ccc(CO)cc3)c(Cl)nc(NC3CCN(Cc4ccc5ccccc5c4)CC3)c2=O)cc1` [8-03], the IC50 at 5HT-transporter is 126 nM; in assay [1], 200 nM; in assay [2], 251 nM.

For `COC(=O)c1ccc(-c2c(Cl)nc(NC3CCN(Cc4ccc5ccccc5c4)CC3)c(=O)n2Cc2ccc(OC)cc2)cc1` [8-04], the IC50 on 5HT-transporter was 794 nM; in assay [1] it was 1260 nM; in assay [2], 1260 nM.

In the case of `COc1ccc(Cn2c(-c3cccc(CNCC4CCCO4)c3)c(Cl)nc(NC3CCN(Cc4ccc5ccccc5c4)CC3)c2=O)cc1` (stereo not drawn) [8-07], the results for the IC50 (on 5HT-transporter; in assay [1]; in assay [2]) were 100 nM, 501 nM and 158 nM, respectively.

Take `COc1ccc(Cn2c(-c3ccc(CNCC4CCCO4)cc3)c(Cl)nc(NC3CCN(Cc4ccc5ccccc5c4)CC3)c2=O)cc1` (stereo not drawn) [8-08]: the IC50 was 63.1 nM at 5HT-transporter, 316 nM in assay [1] and 200 nM in assay [2].

For `COc1ccc(Cn2c(-c3cccc(CN4CCCCC4)c3)c(Cl)nc(NC3CCN(Cc4ccc5ccccc5c4)CC3)c2=O)cc1` [8-09], the IC50 was 50.1 nM at 5HT-transporter, 100 nM in assay [1] and 50.1 nM in assay [2].

As to `COc1ccc(Cn2c(-c3cccc(CN4CCC(O)CC4)c3)c(Cl)nc(NC3CCN(Cc4ccc5ccccc5c4)CC3)c2=O)cc1` [8-10], the IC50 on 5HT-transporter is 31.6 nM; in assay [1] it was 158 nM; in assay [2] it was 79.4 nM.

For the compound `COc1ccc(Cn2c(-c3ccc(CN4CCC(O)CC4)cc3)c(Cl)nc(NC3CCN(Cc4ccc5ccccc5c4)CC3)c2=O)cc1` [8-11], the values for the IC50 (on 5HT-transporter; in assay [1]; in assay [2]) were 31.6 nM, 126 nM and 39.8 nM, respectively.

Regarding `COc1ccc(Cn2c(-c3cccc(CN4CCC(F)CC4)c3)c(Cl)nc(NC3CCN(Cc4ccc5ccccc5c4)CC3)c2=O)cc1` [8-12], the IC50 was 126 nM at 5HT-transporter, 100 nM in assay [1] and 79.4 nM in assay [2].

As for `COc1ccc(Cn2c(-c3cccc(N4CCC(N5CCCC5)CC4)c3)c(Cl)nc(NC3CCN(Cc4ccc5ccccc5c4)CC3)c2=O)cc1` [8-13], the IC50 is 126 nM at 5HT-transporter, 501 nM in assay [1] and 126 nM in assay [2].

On to `COc1ccc(Cn2c(-c3cccc(CN4CCN(C)CC4)c3)c(Cl)nc(NC3CCN(Cc4ccc5ccccc5c4)CC3)c2=O)cc1` [8-14], for which the IC50 was 50.1 nM at 5HT-transporter, 501 nM in assay [1] and 126 nM in assay [2].

As for `O=C1c2ccccc2C(=O)N1CCCn1ccnc(N2CCN(Cc3ccc4ccccc4c3)CC2)c1=O` [9-01], the IC50 is 31.6 nM at 5HT-transporter, 631 nM in assay [1] and 79.4 nM in assay [2].

For the compound `O=C(O)C(F)(F)F.O=C1c2ccccc2C(=O)N1CCCn1ccnc(NCCN2CCN(Cc3ccc4ccccc4c3)CC2)c1=O` [9-02], the “h-5HTT pIC50” value on 5HT-transporter is recorded as 7.3. Also, in assay [1], the “h-α2A pIC50” value came to 6.6. Besides, the “h-α2C pIC50” value in assay [2] is 7.5.

For `O=C(CCN(c1nccn(CCC(=O)c2ccccc2)c1=O)C1CCN(Cc2ccc3ccccc3c2)CC1)c1ccccc1` [9-03], the IC50 at 5HT-transporter was 39.8 nM; in assay [1] it was 251 nM; in assay [2], 39.8 nM.

With `O=C(CCn1ccnc(NC2CCN(Cc3ccc4ncccc4c3)CC2)c1=O)c1ccccc1` [9-05], the IC50 on 5HT-transporter was 25.1 nM; in assay [1], 1580 nM; in assay [2] it was 794 nM.

Regarding `O=c1c(NC2CCN(Cc3ccc4ncccc4c3)CC2)nccn1CCCOCc1ccccc1` [9-06], the IC50 at 5HT-transporter is 39.8 nM; in assay [1], 1260 nM; in assay [2], 316 nM.

Turning to `O=C1c2ccccc2C(=O)N1CCCn1ccnc(NC2CCN(Cc3ccc4ncccc4c3)CC2)c1=O` [9-07], the IC50 was 50.1 nM at 5HT-transporter, 1580 nM in assay [1] and 63.1 nM in assay [2].

Regarding `O=C(CCN(c1nccn(CCC(=O)c2ccccc2)c1=O)C1CCN(Cc2ccc3ccccc3n2)CC1)c1ccccc1` [9-09], the IC50 is 126 nM at 5HT-transporter, 316 nM in assay [1] and 50.1 nM in assay [2].

As to `O=c1c(NC2CCN(Cc3ccc4ncccc4c3)CC2)nccn1CCCOc1ccccc1` [9-12], the IC50 is 794 nM at 5HT-transporter, 501 nM in assay [1] and 63.1 nM in assay [2].

For the compound `O=c1[nH]ccnc1NC1CCN(Cc2ccc3ncccc3c2)CC1` [9-13], the values for the IC50 (on 5HT-transporter; in assay [1]; in assay [2]) were above 10000 nM, 3160 nM and 398 nM, respectively.

In the case of `CCOC(=O)CCCCn1ccnc(NC2CCN(Cc3ccc4ccccc4n3)CC2)c1=O` [9-14], the results for the IC50 (on 5HT-transporter; in assay [1]; in assay [2]) were 3980 nM, 631 nM and 126 nM, respectively.

As to `O=c1c(NC2CCN(Cc3ccc4ccccc4n3)CC2)nccn1CCOc1ccccc1` [9-15], the IC50 at 5HT-transporter was 631 nM; in assay [1] it was 631 nM; in assay [2], 158 nM.

Take `O=C1c2ccccc2C(=O)N1CC#CCn1ccnc(NC2CCN(Cc3ccc4ccccc4n3)CC2)c1=O` [9-18]: the IC50 was 1000 nM at 5HT-transporter, 2000 nM in assay [1] and 63.1 nM in assay [2].

In the case of `O=C(CCN(c1nccn(CCC(=O)c2ccccc2)c1=O)C1CCN(Cc2cnc3ccccc3c2)CC1)c1ccccc1` [9-20], the IC50 on 5HT-transporter is 398 nM; in assay [1], 3160 nM; in assay [2], 398 nM.

For the compound `CCOC(=O)CCCCn1ccnc(NC2CCN(Cc3cnc4ccccc4c3)CC2)c1=O` [9-21], the figures for the IC50 (on 5HT-transporter; in assay [1]; in assay [2]) were 2000 nM, 1260 nM and 200 nM, respectively.

With `NCc1ccc(Cn2ccnc(N3CCN(Cc4cccc5ccccc45)CC3)c2=O)cc1` [9-23], the results for the IC50 (on 5HT-transporter; in assay [1]; in assay [2]) were 1260 nM, 398 nM and 1000 nM, respectively.

On to `CN(C)C(=O)Cn1ccnc(N2CCN(Cc3cccc4ccccc34)CC2)c1=O` [9-24], for which the IC50 is above 10000 nM on 5HT-transporter, 5010 nM in assay [1] and 398 nM in assay [2].

Regarding `CC(C)(C)OC(=O)NCc1ccc(Cn2ccnc(N3CCN(Cc4cccc5ccccc45)CC3)c2=O)cc1` [9-25], the values for the IC50 (at 5HT-transporter; in assay [1]; in assay [2]) were 1260 nM, 631 nM and 398 nM, respectively.

As to `O=c1c(N2CCN(Cc3cccc4ccccc34)CC2)nccn1Cc1ccccc1` [9-26], the results for the IC50 (at 5HT-transporter; in assay [1]; in assay [2]) were 2510 nM, 501 nM and 1000 nM, respectively.

Consider `O=C1c2ccccc2C(=O)N1CCCn1ccnc(NC2CCN(Cc3cnc4ccccc4c3)CC2)c1=O` [9-27], for which the IC50 is 631 nM at 5HT-transporter, above 10000 nM in assay [1] and 794 nM in assay [2].

As for `O=C(CCN(c1nccn(CCC(=O)c2ccccc2)c1=O)C1CCN(Cc2ccnc3ccccc23)CC1)c1ccccc1` [9-28], the IC50 on 5HT-transporter is 200 nM; in assay [1], above 10000 nM; in assay [2] it was 631 nM.

For the compound `O=c1c(N2CCN(Cc3ccc4ccccc4n3)CC2)nccn1Cc1ccccc1` [9-29], the IC50 is above 10000 nM on 5HT-transporter, 631 nM in assay [1] and 501 nM in assay [2].

These data come from patent publication US20080269251A1, “Substituted Pyrazinone Derivatives as Alpha2C-Adrenoreceptor Antagonists” (priority 2005, published 2008).
